Experiments:
[1] = system: bone defects in the jawbones; experiment: jawbone defect regeneration in cynomolgus monkeys (microCT); assay type: in vivo; conditions: 200 μg at bone defect site, one month
Description: Bone defects with a diameter of 2 cm and a depth of 2 cm were artificially produced in the jawbones of young (2 years old) and aged (10 years old) cynomolgus monkeys by using a round steel bar. Next, 200 μg of each of erythromycin, clarithromycin, and azithromycin were added to the bone defect sites. As controls, a non-administered group and a group administered with 200 μg of REGROTH (registered trademark), which has been approved as a bone regenerative agent, were also prepared. The amount of bone regeneration after one month from the administration of each drug was checked by using microCT. In FIG. 10, the symbol * indicates p<0.01.

[2] = system: acute lung disorder mice; experiment: LPS-induced acute lung disorder, HE staining of lung tissue; assay type: in vivo, mouse; conditions: 10 mg/kg intraperitoneally once a day for two weeks
Description: Acute lung disorder was induced by administering lipopolysaccharide (LPS) to the tracheae and bronchi of mice (the details of a production method were as described in Non Patent Document 1). Erythromycin (10 mg/kg) was administered to 6-week-old wild-type mice (N=4, male C57BL/6N mice, manufactured by CLEA Japan, Inc.) and 6-week-old DEL-1-deficient mice (N=4, male C57BL/6N mice (manufactured by CLEA Japan, Inc.), a method for producing the deficient mice was as described in Non-Patent Document 1), by intraperitoneal administration once a day for a total of two weeks. After the administration, the lungs were extracted from each mouse and fixed, and then slice preparations were produced. Next, hematoxylin and eosin (HE) staining was performed. Observation images (magnifications: 10 times and 200 times) obtained with a microscope (manufactured by Nikon Corporation, ECLIPSE Ni-E) are shown in FIG. 7A to 7C.

[3] = system: osteoblasts; experiment: bone nodule measurement in osteoblasts (Alizarin red S); assay type: cell-based, mouse; conditions: for formation of bone nodules (FIG. 1): erythromycin 10 μg/mL
Description: Next, from the cranial bones of 3-day-old wild-type mice (N=6, male C57BL/6N mice, manufactured by CLEA Japan, Inc.) and 3-day-old DEL-1-deficient mice (N=6, male C57BL/6N mice (manufactured by CLEA Japan, Inc.), a method for producing the deficient mice was as described in Non Patent Document 1), osteoblasts were isolated by allowing 0.1% by mass of type 1 collagenase and 0.2% by mass of dispase to act at 37° C. for 20 minutes, and the cells were cultured in α-MEM and a bone differentiation medium (containing 50 μg/ml ascorbic acid and 10 mM β-glycerol 2-phosphate). Ethanol (final concentration 0.1% by mass) and erythromycin (10 μg/mL) were added into the medium in which the osteoblasts (1×10^4 cells/mL) derived from the wild-type mice or the DEL-1-deficient mice were cultured. The medium was exchanged every 3 days, and after 15 days, the cells were stained with Alizarin red S, followed by performing of bone nodule measurement.
(§1) Next, the proportion (%) of bone nodules with respect to the observation region in the above-described osteoblasts was calculated from microscopic images by using image processing software (NIH Image). In addition, RNA was extracted from each of the osteoblasts by using an RNeasy Kit (manufactured by QIAGEN NV), subsequently cDNA was synthesized by using a cDNA synthesis kit (manufactured by Thermo Fisher Scientific, Inc.), and the relative expression levels of RUNX2 mRNA, Sp7 mRNA, and Bglap mRNA, which are important for bone regeneration, were checked by an RT-PCR method (Quantstudio3, Thermo Fisher Scientific, Inc.). Regarding primers, designed primers manufactured by Thermo Fisher Scientific, Inc. were used. The Assay IDs of the primers used are shown below.
(Bone regeneration-inducing effect 2 by various macrolide antimicrobial agents) From the cranial bones of 3-day-old wild-type mice (N=6, male C57BL/6N mice, manufactured by CLEA Japan, Inc.), osteoblasts were isolated by allowing 0.1% by mass of type 1 collagenase and 0.2% by mass of dispase to act at 37° C. for 20 minutes, and the cells were cultured in α-MEM and a bone differentiation medium (containing 50 μg/ml ascorbic acid and 10 mM β-glycerol 2-phosphate). Ethanol (final concentration 0.1% by mass), or erythromycin, clarithromycin, or azithromycin (10 μg/mL each) was added into the medium in which the osteoblasts (1×10^4 cells/mL) derived from the wild-type mice were cultured. The medium was exchanged every 3 days, and after 15 days, the cells were stained with Alizarin red S, followed by performing of bone nodule measurement. The results are shown in FIG. 11 In FIG. 11, the symbol * indicates p<0.05, and the symbol ** indicates p<0.01. In addition, the control is an ethanol (final concentration 0.1% by mass)-added group.

[4] = system: RUNX2 mRNA, Sp7 mRNA, and Bglap mRNA; experiment: RT-PCR of bone regeneration genes in osteoblasts; assay type: cell-based, mouse; conditions: osteoblasts derived from wild-type mice
Description: as §1

CC[C@H]1OC(=O)[C@H](C)[C@@H](O[C@H]2C[C@@](C)(OC)[C@@H](O)[C@H](C)O2)[C@H](C)[C@@H](O[C@@H]2O[C@H](C)C[C@H](N(C)C)[C@H]2O)[C@](C)(O)C[C@@H](C)C(=O)[C@H](C)[C@@H](O)[C@]1(C)O [erythromycin] was tested. Which “bone regeneration effect (FIG. 10)” value ([1]; aged (10 years old) cynomolgus monkeys) did it give?
The value was “a bone regeneration effect was recognized”.

And the “bone regeneration effect (FIG. 10)” value ([1]; young (2 years old) cynomolgus monkeys)?
The value was “a bone regeneration effect was recognized”.

And the “tissue repair and restructuring of the alveolar structure (FIG. 7C)” value ([2]; DEL-1-deficient mouse)?
The value was “normal tissue repair and restructuring of the alveolar structure were not recognized”.

And the “tissue repair and restructuring of the alveolar structure (FIG. 7B)” value ([2]; wild-type mouse)?
The value was “normal tissue repair and restructuring of the alveolar structure were recognized”.

And the “proportion of bone nodules (FIG. 2)” value ([3]; osteoblasts derived from DEL-1-deficient mice)?
The value was “an increase in the proportion of bone nodules was not recognized”.

What about the “formation of bone nodules (FIG. 1)” value ([3]; osteoblasts derived from DEL-1-deficient mice, 15 days) of the same molecule?
Its value is “the formation of bone nodules was not recognized”.

What about the “proportion of bone nodules (FIG. 2)” value ([3]; osteoblasts derived from wild-type mice) of the same molecule?
The value was “significant increases in the proportion of bone nodules was recognized”.

What about the “formation of bone nodules (FIG. 11)” value ([3]; osteoblasts derived from wild-type mice, 10 μg/mL each, 15 days) of the same molecule?
The value was “the formation of bone nodules was recognized”.

And the “formation of bone nodules (FIG. 1)” value ([3]; osteoblasts derived from wild-type mice, 15 days)?
The value was “the formation of bone nodules was recognized”.

What about the “expression of Bglap mRNA” value [4] of the same molecule?
The value was “increases in the expression”.

What about the “expression of RUNX2 mRNA” value [4] of the same molecule?
The value was “increases in the expression”.

And the “expression of Sp7 mRNA” value [4]?
The value was “increases in the expression”.

Reference: US20240382508A1, “REGENERATIVE AGENT FOR BONE TISSUE AND LUNG TISSUE, AND PHARMACEUTICAL COMPOSITION FOR REGENERATING BONE TISSUE AND LUNG TISSUE” (NIIGATA UNIVERSITY, priority 2021, published 2024)
